Series [1] relates to HBeAg. As to the kind of experiment: PHH natural infection assay, HBeAg (alphalisa). In kind it is cell-based, HBV. The note with it: Hepatitis B virus, read-out: HBeAg IC50. How it is done:
(§1) Detailed procedures regarding primary human hepatocyte (PHH) HBV natural infection assay are described as below. One tube of frozen PHH (10 million cells) is thawed in 37° C. water bath and then transferred to 20 mL of PHH thawing medium (Sigma, InVitroGRO HT Medium, Cat. S03319) with gently mixing. The cells were then centrifuged at […] for 5 min, the supernatant was discarded and the tube was refilled with 25 mL of PHH plating medium (Sigma, InVitroGRO CP Medium, Cat. S03317). The tube was shaken very gently to re-suspend all cells, and then 50 μL of cells were transferred to each well 384-well collagen I coated plate with appropriate liquid handling equipment, e.g. Integra VIAFLO384 or Agilent Bravo. The cells were then cultured for 24 hours in a cell incubator. For HBV infection, after PHH attachment on the culture plate, the plating medium was removed and replenished with PHH culture medium containing HBV virus. The PHH culture medium was prepared with Dulbecco's Modified Eagle Medium (DMEM)/F12 (1:1 in volume ratio) containing 10% fetal bovine serum (Gibco, Cat. 10099141), 5 ng/mL human epidermal growth factor (Gibco, Cat.PHG0311L), 20 ng/mL dexamethasone (Sigma, Cat.D4902-100 mg), 250 ng/mL human recombinant insulin (Gibco, Cat.41400045) and 100 U/mL penicillin. HBV virus at 200 genome equivalent (GE) per cell with 4% PEG8000 (Sigma, Cat.P1458) containing culture medium were added to the PHH culture medium for infection. The cells were then cultured for 24 hours in cell incubator. Then the cell culture supernatant was removed. The HBV-infected PHH were cultured with sandwich culture method with PHH culture medium containing 1% DMSO and 0.25 mg/mL matrix gel for 72 hours. The supernatant was then refreshed with PHH culture medium containing different concentrations of testing compounds for two times with 72-hour interval. At the end of treatment, the supernatant was collected for viral markers measurements, including HBsAg, HBeAg, HBV DNA and cytotoxicity. HBsAg and HBeAg were detected using alphalisa method using their specific antibodies. For HBV DNA detection, HBV DNA Quantitative Fluorescence Diagnostic Kit (Sansure Biotech Inc.) was used following the manufacture's protocol. Cytotoxicity was determined using Cell Counting Kit-8 (CCK8, Dojindo Molecular Technologies, Inc.).
(§2) The compounds of the present invention were tested for their capacity to inhibit HBsAg and HBeAg as described herein.

Series [2] has as its system HBsAg. As to the kind of experiment: PHH natural infection assay, HBsAg (alphalisa). In kind it is cell-based, HBV. The following applies: Hepatitis B virus, read-out: HBsAg IC50. How it is done:
as §1, §2

Series [3] can be described thus: PHH natural infection assay, cytotoxicity (Cell Counting Kit-8). The following applies: human. In kind it is cell-based. How it is done: as §1

Each structure is given as a SMILES string. Where only a bound is given, the exact number is not on record here.

As usually defined, the IC50 is the concentration that inhibits the measured activity by half. Broadly, the CC50 is the concentration giving 50% cytotoxicity. Turning to `CC(O)C(=O)Nc1ccc(-c2nc3cccc(F)c3o2)cc1` (stereo not drawn) [Example 24, N-[4-(7-fluoro-1,3-benzoxazol-2-yl)phenyl]-2-hydroxy-propanamide], the IC50 in series [1] amounted to 1800 nM; in series [2] it was 940 nM. In series [3], the CC50 at 144 h was above 100000 nM.
For `O=C(Nc1ccc(-c2nc3cccc(F)c3o2)cc1)C1CCC1` [Example 25, N-[4-(7-fluoro-1,3-benzoxazol-2-yl)phenyl]cyclobutanecarboxamide], in that order: 720 nM, 950 nM and above 100000 nM.
For `CC(=O)OC1(C(=O)Nc2ccc(-c3nc4cccc(F)c4o3)cc2)CCOCC1` [Example 26, [4-[[4-(7-fluoro-1,3-benzoxazol-2-yl)phenyl]carbamoyl]tetrahydropyran-4-yl] acetate], in that order: 840 nM, 1080 nM and 73500 nM.
For `O=C(Nc1ccc(-c2nc3cccc(F)c3o2)cc1)C1CC1(F)F` (stereo not drawn) [Example 27, 2,2-difluoro-N-[4-(7-fluoro-1,3-benzoxazol-2-yl)phenyl]cyclopropanecarboxamide], in that order: 710 nM, 1100 nM and above 100000 nM.
As for `O=C(Nc1ccc(-c2nc3cccc(F)c3o2)cc1)C1CCOCC1` [Example 28, N-[4-(7-fluoro-1,3-benzoxazol-2-yl)phenyl]tetrahydropyran-4-carboxamide], the IC50 in series [1] was found to be 1000 nM; in series [2], 960 nM. The same molecule came in with a CC50 at 144 h in series [3] above 100000 nM.
With `O=C(Nc1ccc(-c2nc3cccc(F)c3o2)cc1)C1COC1` [Example 29, N-[4-(7-fluoro-1,3-benzoxazol-2-yl)phenyl]oxetane-3-carboxamide], the IC50 turned out to be 1450 nM in series [1] and 1380 nM in series [2]. Further, the CC50 at 144 h in series [3] was above 100000 nM.
For the molecule `O=C(Nc1ccc(-c2nc3cccc(F)c3o2)cc1)C1CCSCC1` [Example 30, N-[4-(7-fluoro-1,3-benzoxazol-2-yl)phenyl]tetrahydrothiopyran-4-carboxamide], the 50% inhibitory concentration (IC50) in series [1] is 1470 nM; in series [2] it was 1490 nM. The molecule also had a CC50 at 144 h in series [3] above 100000 nM.
For `O=C(Nc1ccc(-c2nc3cccc(F)c3o2)cc1)C1CS(=O)(=O)C1` [Example 31, N-[4-(7-fluoro-1,3-benzoxazol-2-yl)phenyl]-1,1-dioxo-thietane-3-carboxamide] the same measures were 2290 nM, 1500 nM and above 100000 nM.
For `CC1(C(=O)Nc2ccc(-c3nc4cccc(F)c4o3)cc2)CC1` [Example 32, N-[4-(7-fluoro-1,3-benzoxazol-2-yl)phenyl]-1-methyl-cyclopropanecarboxamide] the same measures were 1160 nM, 1520 nM and above 100000 nM.
Consider `O=C(Nc1ccc(-c2nc3cccc(F)c3o2)cc1)C1C2COCC21` (stereo not drawn) [Example 33, N-[4-(7-fluoro-1,3-benzoxazol-2-yl)phenyl]-3-oxabicyclo[3.1.0]hexane-6-carboxamide], for which the IC50 in series [1] was found to be 1090 nM; in series [2] it was 1580 nM. The molecule further showed a CC50 at 144 h in series [3] above 100000 nM.
Consider `CC1(C(=O)Nc2ccc(-c3nc4cccc(F)c4o3)cc2)CCC1` [Example 34, N-[4-(7-fluoro-1,3-benzoxazol-2-yl)phenyl]-1-methyl-cyclobutanecarboxamide], for which the values for the IC50 in series [1] and in series [2] were 1760 nM and 1610 nM, respectively. Further, the CC50 at 144 h in series [3] is above 100000 nM.
For `CC1(C(=O)Nc2ccc(-c3nc4cccc(F)c4o3)cc2)CCCO1` (stereo not drawn) [Example 35, N-[4-(7-fluoro-1,3-benzoxazol-2-yl)phenyl]-2-methyl-tetrahydrofuran-2-carboxamide], the IC50 in series [1] was 1850 nM; in series [2], 1670 nM. The same molecule returned a CC50 at 144 h in series [3] above 100000 nM.
For `CC(=O)OC1(C(=O)Nc2ccc(-c3nc4cccc(F)c4o3)cc2)CC1` [Example 36, [1-[[4-(7-fluoro-1,3-benzoxazol-2-yl)phenyl]carbamoyl]cyclopropyl] acetate], in that order: 2610 nM, 2740 nM and above 100000 nM.
For `O=C(Nc1ccc(-c2nc3cccc(F)c3o2)cc1)OC1CCOC1` (stereo not drawn) [Example 37, tetrahydrofuran-3-yl N-[4-(7-fluoro-1,3-benzoxazol-2-yl)phenyl]carbamate] the same measures were 4300 nM, 3430 nM and above 100000 nM.
For `COC(=O)C12CC(C(=O)Nc3ccc(-c4nc5cccc(F)c5o4)cc3)(C1)C2` [Example 38, methyl 3-[[4-(7-fluoro-1,3-benzoxazol-2-yl)phenyl]carbamoyl]bicyclo[1.1.1]pentane-1-carboxylate] the same measures were 3940 nM, 3740 nM and above 100000 nM.
Consider `CCC1(C(=O)Nc2ccc(-c3nc4cccc(F)c4o3)cc2)COC1` [Example 39, 3-ethyl-N-[4-(7-fluoro-1,3-benzoxazol-2-yl)phenyl]oxetane-3-carboxamide], for which the IC50 in series [1] was 9010 nM; in series [2], 6290 nM. The CC50 at 144 h in series [3] was above 100000 nM.
For `O=C(Nc1ccc(-c2nc3c(F)cccc3o2)cc1)c1ncco1` [Example 40, N-[4-(4-fluoro-1,3-benzoxazol-2-yl)phenyl]oxazole-2-carboxamide] the same measures were 330 nM, 170 nM and above 100000 nM.
For `Cc1cnc(C(=O)Nc2ccc(-c3nc4c(F)cccc4o3)cc2)o1` [Example 41, N-[4-(4-fluoro-1,3-benzoxazol-2-yl)phenyl]-5-methyl-oxazole-2-carboxamide] the same measures were 520 nM, 420 nM and above 100000 nM.
As for `O=C(Nc1ccc(-c2nc3c(F)cccc3o2)cc1)c1ccccn1` [Example 42, N-[4-(4-fluoro-1,3-benzoxazol-2-yl)phenyl]pyridine-2-carboxamide], the IC50 in series [1] was 520 nM; in series [2], 460 nM. The molecule also gave a CC50 at 144 h in series [3] above 100000 nM.
Regarding `Cc1coc(C(=O)Nc2ccc(-c3nc4c(F)cccc4o3)cc2)n1` [Example 43, N-[4-(4-fluoro-1,3-benzoxazol-2-yl)phenyl]-4-methyl-oxazole-2-carboxamide], the figures for the IC50 in series [1] and in series [2] were 1070 nM and 1090 nM, respectively. Besides, the CC50 at 144 h in series [3] is above 100000 nM.
In the case of `O=C(Nc1ccc(-c2nc3c(F)cccc3o2)cc1)c1nccs1` [Example 44, N-[4-(4-fluoro-1,3-benzoxazol-2-yl)phenyl]thiazole-2-carboxamide], the results for the IC50 in series [1] and in series [2] were 1280 nM and 1330 nM, respectively. In series [3], the CC50 at 144 h is above 100000 nM.
For `Cc1ncc(C(=O)Nc2ccc(-c3nc4c(F)cccc4o3)cc2)o1` [Example 45, N-[4-(4-fluoro-1,3-benzoxazol-2-yl)phenyl]-2-methyl-oxazole-5-carboxamide] the same measures were 1350 nM, 1360 nM and above 100000 nM.
For `O=C(Nc1ccc(-c2nc3c(F)cccc3o2)cc1)c1cccnc1` [Example 46, N-[4-(4-fluoro-1,3-benzoxazol-2-yl)phenyl]pyridine-3-carboxamide], in that order: 4530 nM, 2230 nM and above 100000 nM.
As to `O=C(Nc1ccc(-c2nc3c(F)cccc3o2)cc1)C12CC(C1)C2` [Example 47, N-[4-(4-fluoro-1,3-benzoxazol-2-yl)phenyl]bicyclo[1.1.1]pentane-1-carboxamide], the IC50 in series [1] turned out to be 1200 nM; in series [2] it was 1020 nM. The molecule further registered a CC50 at 144 h in series [3] above 100000 nM.
With `O=C(Nc1ccc(-c2nc3c(F)cccc3o2)cc1)C12CC(F)(C1)C2` [Example 48, 3-fluoro-N-[4-(4-fluoro-1,3-benzoxazol-2-yl)phenyl]bicyclo[1.1.1]pentane-1-carboxamide], the IC50 in series [1] came to 970 nM; in series [2], 760 nM. The same molecule returned a CC50 at 144 h in series [3] above 100000 nM.
Take `CC(C)(O)C(=O)Nc1ccc(-c2nc3c(F)cccc3o2)cc1` [Example 49, N-[4-(4-fluoro-1,3-benzoxazol-2-yl)phenyl]-2-hydroxy-2-methyl-propanamide]: the IC50 in series [1] came to 530 nM; in series [2], 620 nM. The molecule also returned a CC50 at 144 h in series [3] above 100000 nM.

(Values after patent US20230286930A1, “N -SUBSTITUTED 4-(1,3-ARYLOXAZOLO-2-YL)PHENYL COMPOUNDS FOR THE TREATMENT AND PROPHYLAXIS OF HEPATITIS B VIRUS INFECTION” (Hoffmann-La Roche Inc., priority 2020, published 2023).)
